Results from ChEMBL document CHEMBL2062367, “Stigonemapeptin, an Ahp-containing depsipeptide with elastase inhibitory activity from the bloom-forming freshwater cyanobacterium Stigonema sp” (J Nat Prod, 2012).
Activity calls are given as the source filed them.

Columns and labels:
Sus scrofa = species on record: Sus scrofa; assay: Inhibition of pig pancreatic trypsin using Nalpha-benzoyl-DL-arginine-4-nitroanilide as substrate at 10 uM incubated for 15 mins prior to substrate addition measured ever 30 secs for 30 mins by spectroscopy
Homo sapiens = species on record: Homo sapiens; assay: Inhibition of 20S proteasome at 25 uM
HT-29 = assay: Cytotoxicity against human HT-29 cells at 25 uM; type: functional, cell-based

C/C=C1/NC(=O)[C@@H](NC(=O)[C@H](CCC(N)=O)NC(=O)[C@@H]2CCCN2C=O)[C@@H](C)OC(=O)[C@H](C(C)C)NC(=O)[C@H](Cc2ccc(O)cc2)N(C)C(=O)[C@H](Cc2ccccc2)N2C(=O)[C@H](CC[C@H]2O)NC1=O
inactive: inhibition (Sus scrofa) | inhibition (Homo sapiens) | Activity (HT-29)
